Patent publication US6710075B2, “Therapeutic compounds and methods” (The Government of the State of Sarawak, Malaysia, priority 2000, dated 2004)

Legend:
A549 cells [1] = experiment: Senescence-associated β-galactosidase (SA-β-gal) activity staining; format: cell-based, human; details: A549, 250 nM doxorubicin, 10 days
Experimental: A549 cells were seeded at 10,000 cell/well in 6 well plates in the presence or absence of varying concentrations of Compound A (10-50 nM) or 250 nM doxorubicin for 10 days prior to their processing and staining overnight for senescence-associated β-galactosidase activity as described previously (Dimri et al., 1995, Proc Natl Acad Sci USA 1995 92(20):9363-7). […] PC, phase contrast microscopy. BF, bright field microscopy Magnification×200.
This was evaluated further by measuring senescence-associated β-galactosidase (SA-β-gal) activity, a biomarker previously described to correlate well with senescence of human cells (Dimri et al., Proc Natl Acad Sci USA 1995 92(20):9363-7). […] Therefore, in addition to Compound A A549 cells were also treated with doxorubicin as an experimental control.

THP-1 cells [2] = experiment: WST-1 reduction by THP-1 cells; format: cell-based, human
Text: (§1) (a) Compounds A and B were identified from a bark sample of Aglaia leptantha through their ability to inhibit production of Tumour Necrosis Factor-α (TNF-α) by THP-1 human promonocytic leukemia cells (Tsuchiya, et al, Int. J. Cancer, 1980, 26(2):171-6) activated with lipopolysaccharide (LPS). Table 4 summarises the results comparing the activity of Compounds A and B for inhibition of TNF-α production to their effects on general cell metabolism measured using WST-1 reduction, DNA synthesis and protein synthesis assays for THP-1 cells. […] For comparison, the effects of Compounds A and B on A549 lung epithelial carcinoma cells (Leiber et al, Int. J. Cancer, 1976, 17(1)-62-70) were also measured and the data is also included in Table 4.

THP-1 cells [3] = experiment: Cell death as loss of membrane integrity, YOYO-1 uptake; format: cell-based; details: Homo sapiens, THP-1, 72 h, read-out: LC50
Text: (§2) (a) Table 8 compares the cytostatic and cytotoxic effects of Compound A to three previously identified 1H-cyclopenta[b]benzofuran lignans that lack the dioxanyloxy group at the C6-position. The reference compounds are: Rocaglaol (Reference Compound 1) (Ohse et al., J Nat Prod, 1996, 59(7):650-52); 4′-Demethoxy-3′,4′-methylenedioxyrocaglaol (Reference Compound 2) and Methyl 4′-demethoxy-3′,4′-methylenedioxyrocaglate (Reference Compound 3) (Lee et al., Chem Biol Interact, 1998, 115(3):215-28).

A549 cells [4] = experiment: as above; format: cell-based; details: Homo sapiens, A549, 72 h, read-out: LC50
Text: as §2

A549 [5] = experiment: Cytostatic activity, relative cell number by YOYO-1 DNA dye; format: cell-based, human; details: Homo sapiens, 72 h; A549, lung; read-out: GI50 (3 day cultures)
Experimental: (§3) (b) Compound A was assessed for cytotoxic and cytostatic activity against a panel of cell lines derived from a variety of human tumour types in addition to THP-1 and A549 cells (Table 5). These included K562 leukemic cells (Lozzio and Lozzio, 1975, Blood 45:321-34), PC3 prostate tumour cells (Kaighn et al., 1979, Invest. Urol. 17:16-23) and SF268 glioblastoma cells (Westphal et al, 1985, Biochem. Biophys. Res. Commun., 132:284-9). […] However, the cytotoxic potency of Compound A increased dramatically after 6 days of culture for the K562, A549 and SF268 cells.

A549 cells [6] = experiment: Effect on cell cycle arrest and cell death induced by anti-cancer agents, DNA content analysis; format: cell-based; details: 3 days
Experimental: A549 cells in 6 well plates were cultured for 3 days in the presence or absence of 10 nM Compound A together with 0.1 μM camptothecin, 10 μM vinblastin, 1 μM paclitaxel or 1 μM staurosporine as indicated. The cells were then collected and fixed in 70% ethanol prior to staining with propidium iodide and DNA content determined by flow cytometry. The numbers indicate the % of cells in the various cell cycle phases relative to all cells with ≧2N DNA content and also the % dead cells (ie. subdiploid ≦2N cells) to the left of the dotted marker that arose during the culture period.
This was examined in more detail using DNA content analysis to specifically measure cell cycle progression and cell death. In this experiment in addition to camptothecin and paclitaxel cells were also treated with vinblastin (another microtubule inhibitor) (Sorger et al., 1997, supra) and staurosporine (a kinase inhibitor) (Gescher, Crit Rev Oncol Hematol., 2000, 34(2):127-35).

THP-1 cells [7] = experiment: DNA content analysis (cell cycle and viability) of THP-1 cells; format: cell-based, human; details: THP-1, 1000 nM paclitaxel, 2 days
Experimental: THP-1 cells were cultured for 2 days with the indicated concentration of Compound A or 1000 nM paclitaxel then collected and fixed in 70% ethanol prior to staining with propidium iodide and DNA content determined by flow cytometry. The numbers indicate the % of cells in the various cell cycle phases relative to all cells with ≧2N DNA content and also the % dead cells (ie. subdiploid≦2N cells) to the left of the marker (the vertical line) that arose during the culture period.

THP-1 cells [8] = experiment: Protein synthesis, [14C]-leucine uptake, THP-1 cells; format: cell-based, human; details: 48 hours
Text: as §1

[9] = tested on: Tumour Necrosis Factor-α (TNF-α); experiment: Inhibition of TNF-α production by LPS-activated THP-1 cells (sandwich ELISA); format: cell-based, human; details: 18 hours
Text: as §1

[10] = tested on: Intercellular Adhesion Molecule-1 (ICAM-1); experiment: IL-1-induced ICAM-1 surface expression by A549 cells (Delfia); format: cell-based, human; details: 24 hours, read-out: IC50 ICAM-1 Production
Text: as §1

A549 cells [11] = experiment: Protein synthesis, [14C]-leucine uptake, A549 cells; format: cell-based, human; details: 72 hours
Text: as §1

A549 cells [12] = experiment: DNA synthesis, [14C]-thymidine uptake, A549 cells; format: cell-based, human; details: 72 hours
Text: as §1

THP-1 cells [13] = experiment: DNA synthesis, [14C]-thymidine uptake, THP-1 cells; format: cell-based, human; details: 48 hours
Text: as §1

K562 = experiment: Cytotoxic activity, sub-diploid DNA content by flow cytometry (propidium iodide); format: cell-based, human; details: K562, 6 days; read-out: LC50 (6 day cultures)
Experimental: as §3

SF268 = experiment: as above; format: cell-based, human; details: SF268, 6 days; read-out: LC50 (6 day cultures)
Experimental: as §3

PC3 = experiment: as above; format: cell-based, human; details: PC3, 6 days; read-out: LC50 (6 day cultures)
Experimental: as §3

A549 [14] = experiment: as above; format: cell-based, human; details: A549, 6 days; read-out: LC50 (6 day cultures)
Experimental: as §3

THP-1 = experiment: as above; format: cell-based, human; details: THP-1, 6 days; read-out: LC50 (6 day cultures)
Experimental: as §3

K562 leukemic cells = experiment: DNA content analysis (cell cycle) of K562 leukemic cells; format: cell-based, human; details: K562, 10-15 nM, 3 days
Experimental: K562 cells were cultured for 3 days with the indicated concentration of Compounds A or B then collected and fixed in 70% ethanol prior to staining with propidium iodide and DNA content determined by flow cytometry. The numbers indicate the % of cells in G0/G1, S and G2/M phases of the cell cycle respectively relative to all cells with ≧2N DNA content.

[15] = THP-1 leukemic cells, cultured with compound for 3 days, read-out: IC50 (reduction of WST-1)

`COc1cccc2c1C(=O)c1c(O)c3c(c(O)c1C2=O)C[C@@](O)(C(=O)CO)C[C@@H]3O[C@H]1C[C@H](N)[C@H](O)[C@H](C)O1` [doxorubicin, reference compound] was tested, and the SA-β-gal activity (A549 cells [1]) was “exhibited SA-β-gal activity”.
`COC(=O)[C@H]1[C@@H](O)[C@@]2(O)c3c(OC)cc(OC4OC(C(COC(C)=O)OC(C)=O)COC4OC)cc3O[C@@]2(c2ccc(OC)cc2)[C@@H]1c1ccccc1` (stereo partly drawn) [Compound A′] showed an IC50 (THP-1 cells [2]; [15]) of 0.3 nM.
`COC(=O)C1C(O)C2(O)c3c(OC)cc(OC)cc3OC2(c2ccc3c(c2)OCO3)C1c1ccccc1` (stereo not drawn) [Reference Compound 3, Methyl 4′-demethoxy-3′,4′-methylenedioxyrocaglate] was tested, and the CC50 (THP-1 cells [3]) was > 5 µM, the CC50 (A549 cells [4]) was > 5 µM and the GI50 (A549 [5]) was 56 nM.
For `CC[C@]1(O)C[C@@H]2CN(CCc3c([nH]c4ccccc34)[C@@](C(=O)OC)(c3cc4c(cc3OC)N(C)[C@H]3[C@@](O)(C(=O)OC)[C@H](OC(C)=O)[C@]5(CC)C=CCN6CC[C@]43[C@@H]65)C2)C1` [vinblastin, reference compound], the “cell cycle phase accumulation” value (A549 cells [6]; A549, 10 μM vinblastin) was “majority of cells arresting in the G2/M phases of the cell cycle”.
With `CC(=O)O[C@H]1C(=O)[C@@]2(C)[C@H]([C@H](OC(=O)c3ccccc3)[C@]3(O)C[C@H](OC(=O)[C@H](O)[C@@H](NC(=O)c4ccccc4)c4ccccc4)C(C)=C1C3(C)C)[C@]1(OC(C)=O)CO[C@@H]1C[C@@H]2O` [paclitaxel, reference compound] the “cell cycle phase accumulation” value (THP-1 cells [7]) was “caused cells to accumulate in the G2/M phases of the cell cycle” and the “cell cycle phase accumulation” value (A549 cells [6]; A549, 1 μM paclitaxel) was “majority of cells arresting in the G2/M phases of the cell cycle”.
`CC[C@@]1(O)C(=O)OCc2c1cc1n(c2=O)Cc2cc3ccccc3nc2-1` [camptothecin, reference compound] was tested, and the “cell cycle phase accumulation” value (A549 cells [6]; A549, 0.1 μM camptothecin) was “accumulation of cells in S phase of the cell cycle”.
With `COc1ccc(C23Oc4cc(OC)cc(OC)c4C2(O)C(O)CC3c2ccccc2)cc1` (stereo not drawn) [Reference Compound 1, Rocaglaol] the CC50 (THP-1 cells [3]) was > 5 µM, the CC50 (A549 cells [4]) was > 5 µM and the GI50 (A549 [5]) was 3980 nM.
For `COC(=O)[C@H]1[C@@H](O)[C@@]2(O)c3c(OC)cc(OC4OC(C(O)CO)COC4OC)cc3O[C@@]2(c2ccc(OC)cc2)[C@@H]1c1ccccc1` (single isomer, unassigned) [Compound B], the IC50 (THP-1 cells [8]) was 3 nM, the IC50 [9] was 15 nM and the IC50 [10] was 5 µM. It also gave an IC50 (A549 cells [11]) of 10 nM, an IC50 (A549 cells [12]) of 4 nM and an IC50 (THP-1 cells [13]) of 3 nM. For the same compound, the IC50 (THP-1 cells [2]; THP-1 cells, 18 hours of culture, read-out: IC50 WST-1 Reduction) was 40 nM, the IC50 (THP-1 cells [2]; [15]) was 1.5 nM and the CC50 (K562) was 15 nM. It also gave a CC50 (SF268) of 22 nM, a CC50 (PC3) of 12 nM and a CC50 (A549 [14]) of 12 nM. The CC50 (THP-1) was 15 nM and the “cell cycle phase accumulation” value (K562 leukemic cells) was “characteristic accumulation of cells in G2/M phases of the cell cycle”.
`COc1cc(OC)c2c(c1)OC1(c3ccc4c(c3)OCO4)C(c3ccccc3)CC(O)C21O` (stereo not drawn) [Reference Compound 2, 4′-Demethoxy-3′,4′-methylenedioxyrocaglaol] was tested, and the CC50 (THP-1 cells [3]) was > 5 µM, the CC50 (A549 cells [4]) was > 5 µM and the GI50 (A549 [5]) was 389 nM.
`COC(=O)[C@H]1[C@@H](O)[C@@]2(O)c3c(OC)cc(OC4OC(C(COC(C)=O)OC(C)=O)COC4OC)cc3O[C@@]2(c2ccc(OC)cc2)[C@@H]1c1ccccc1` (stereo partly drawn) [Compound B′] was tested, and the IC50 (THP-1 cells [2]; [15]) was 0.7 nM.
